Patent US8906904B2, “Alkoxy pyrazoles as soluble guanylate cyclase activators” (Boehringer Ingelheim International GmbH, priority 2012, dated 2014)
In brackets after ≈: the same amount, converted by molar mass.

Assays:
[1] = Assessment of solubility (McIlvaine buffers, 24 h shake, UPLC-UV); assay type: physicochemical; details: kinetic from dmso stock
How it was run: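 Compounds from 10 mM DMSO stocks were shaken for 24 h at room temperature in McIlvaine buffers at pH 2.2, 4.5 and 6.8 (2.5% v/v DMSO final), then filtered. Filtrates were quantified by UPLC-UV at 254 nm against a 50:50 acetonitrile/water reference assumed fully dissolved, as a single determination.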

[2] = molecular target: T1, human soluble guanylate cyclase alpha 1 and beta 1 subunits (sGC) (Homo sapiens, UniProt Q02108+Q02153); test: sGC cellular activator assay (cGMP, HTRF); assay type: cell-based; details: CHO cells stably expressing human sGC alpha 1/beta 1, preincubated with 40 microM ODQ; cGMP readout; assay run with and without 50% human serum, Table 2 does not say which
T1 construct: expressed in transfected cells; host or cells: Chinese hamster ovary (CHO) cells, stably transfected
T1 sequence (Q02108 1-690): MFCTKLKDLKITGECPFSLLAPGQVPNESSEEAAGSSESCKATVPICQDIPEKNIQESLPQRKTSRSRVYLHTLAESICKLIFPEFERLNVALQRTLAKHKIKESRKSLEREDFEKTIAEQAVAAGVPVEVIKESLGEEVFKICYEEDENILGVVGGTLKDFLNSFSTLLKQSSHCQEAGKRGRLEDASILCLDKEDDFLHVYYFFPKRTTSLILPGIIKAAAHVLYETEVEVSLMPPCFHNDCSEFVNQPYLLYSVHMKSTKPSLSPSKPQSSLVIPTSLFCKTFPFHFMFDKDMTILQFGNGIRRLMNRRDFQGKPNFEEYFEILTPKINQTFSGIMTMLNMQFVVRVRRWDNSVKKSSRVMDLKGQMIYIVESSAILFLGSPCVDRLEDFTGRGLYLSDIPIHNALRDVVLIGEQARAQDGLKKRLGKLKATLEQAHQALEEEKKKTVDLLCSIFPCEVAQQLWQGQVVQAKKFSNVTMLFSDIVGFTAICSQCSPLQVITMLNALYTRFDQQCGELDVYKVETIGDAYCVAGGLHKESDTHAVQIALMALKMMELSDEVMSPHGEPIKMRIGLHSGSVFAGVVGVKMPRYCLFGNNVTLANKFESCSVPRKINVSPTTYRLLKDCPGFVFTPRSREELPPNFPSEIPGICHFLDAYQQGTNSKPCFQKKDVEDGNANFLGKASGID
T1 sequence (Q02153 1-619): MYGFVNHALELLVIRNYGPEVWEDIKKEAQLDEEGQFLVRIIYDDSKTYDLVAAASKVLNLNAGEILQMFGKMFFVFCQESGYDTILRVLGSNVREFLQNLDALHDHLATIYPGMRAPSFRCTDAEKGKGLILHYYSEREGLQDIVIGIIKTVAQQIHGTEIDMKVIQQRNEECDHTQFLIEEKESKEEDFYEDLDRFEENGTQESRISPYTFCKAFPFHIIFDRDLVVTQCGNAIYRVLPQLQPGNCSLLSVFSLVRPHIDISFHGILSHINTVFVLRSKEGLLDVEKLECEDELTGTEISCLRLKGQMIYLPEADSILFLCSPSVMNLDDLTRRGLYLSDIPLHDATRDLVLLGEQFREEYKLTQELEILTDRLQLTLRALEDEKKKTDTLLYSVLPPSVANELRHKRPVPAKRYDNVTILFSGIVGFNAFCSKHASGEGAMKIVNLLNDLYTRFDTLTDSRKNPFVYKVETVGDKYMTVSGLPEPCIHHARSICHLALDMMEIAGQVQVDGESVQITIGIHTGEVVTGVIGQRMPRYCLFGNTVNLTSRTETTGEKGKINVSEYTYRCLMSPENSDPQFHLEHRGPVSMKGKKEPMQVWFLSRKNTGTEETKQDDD
How it was run: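 Heme-oxidized conditions: ODQ (40 microM, 1 h) pretreatment of CHO cells stably expressing human α1/β1 sGC, in buffer containing 0.1% BSA and IBMX.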

| SMILES | solubility at 24 h ([1]; pH 2.2, aqueous buffer) | solubility at 24 h ([1]; pH 4.5, aqueous buffer) | solubility at 24 h ([1]; pH 6.8, aqueous buffer) | EC50 [2] |
| --- | --- | --- | --- | --- |
| CCOc1c(C(=O)O)cnn1-c1cccc(-c2cccc(C)c2OCc2ccc3c(c2C)CCN(CC2CCOCC2)C3)n1 [Compound 172] | 110 µg/mL (≈ 184 µM) | 87 µg/mL (≈ 146 µM) | 85 µg/mL (≈ 142 µM) | 50 nM |
| CCOc1c(C(=O)O)cnn1-c1cccc(-c2cccc(C)c2OCc2cc(C)c3c(c2)CCN(C2CCCOC2)C3)n1 (centres unmarked) [Compound 173] | 130 µg/mL (≈ 223 µM) | 98 µg/mL (≈ 168 µM) | 97 µg/mL (≈ 166 µM) | 13 nM |
| CCOc1c(C(=O)O)cnn1-c1cccc(-c2cccc(C)c2OCc2cc(C)c3c(c2)CCN(C2COC2)C3)n1 [Compound 174] | 99 µg/mL (≈ 178 µM) | 71 µg/mL (≈ 128 µM) | 91 µg/mL (≈ 164 µM) | 14 nM |
| CCOc1c(C(=O)O)cnn1-c1cccc(-c2cccc(C)c2OCc2ccc3c(c2C)CCN(C2COC2)CC3)n1 [Compound 175] | 110 µg/mL (≈ 193 µM) | 80 µg/mL (≈ 141 µM) | 85 µg/mL (≈ 149 µM) | 40 nM |
| COc1c(C(=O)O)cnn1-c1cccc(-c2cccc(C)c2OCc2ccc3c(c2C)CCN(C2COC2)CC3)n1 [Compound 176] | 100 µg/mL (≈ 180 µM) | 77 µg/mL (≈ 139 µM) | 43 µg/mL (≈ 77.5 µM) | 9.7 nM |
| COc1c(C(=O)O)cnn1-c1cccc(-c2cccc(C)c2OCc2ccc3c(c2F)CCN(C2COC2)C3)n1 [Compound 177] | 110 µg/mL (≈ 202 µM) | 58 µg/mL (≈ 107 µM) | 86 µg/mL (≈ 158 µM) | 35 nM |
| COc1c(C(=O)O)cnn1-c1cccc(-c2cccc(C)c2OCc2cc(C)c3c(c2C)CCN(C2COC2)C3)n1 [Compound 178] | 100 µg/mL (≈ 180 µM) | 72 µg/mL (≈ 130 µM) | 86 µg/mL (≈ 155 µM) | 14 nM |
| CCOc1c(C(=O)O)cnn1-c1cccc(-c2cccc(C)c2OCc2ccc3c(c2C)CCN(C[C@H]2COC(C)(C)O2)C3)n1 [Compound 179] | 43 µg/mL (≈ 70.2 µM) | 92 µg/mL (≈ 150 µM) | 93 µg/mL (≈ 152 µM) | 59 nM |
